Data on two compounds can be found in paper PMC12459184, “Design, synthesis, and bioevaluation of pyrazole-containing tubulin polymerisation inhibitors based on conformational constraint strategy” (Journal of Enzyme Inhibition and Medicinal Chemistry, 2025).

Experiment [1] has as its system PC-3 cell line. As to the kind of experiment: MTT cell viability after 24 h. The class given is cell-based. Conditions: Homo sapiens, read-out: cell viability. The procedure:
An MTT assay was made on PC-3 cell line to test the cell viability after treated with different concentrations of compounds 4k and 5a after 24 h which was the same period as immunofluorescence assay.

Experiment [2] deals with PC-3 cells. The experiment in a line: Transwell migration assay. The class given is cell-based, human. Particulars: 24 h, relative to untreated cells. The procedure: Transwell migration assay was used on PC-3 cells to further investigate the effect of 4k and 5a on cell migration.
PC-3 cells in logarithmic phase were harvested and seeded onto six-well cell plates at a density of 4 × 10^4 cells per well, and were cultured for 24 h. […] Then these cells were harvested and seeded onto the top chambers of transwell filters (Corning) at a concentration of 4 × 10^4 cells with 200 μL of FBS-free medium per well in 24-well culture plates, while the bottom chambers were added 600 μL of medium containing 10% FBS. The cells were cultured for additional 24 h, then the cells that migrated to the bottom of the top chambers were fixed with 4% paraformaldehyde and subsequently stained with crystal violet solution. Images were taken by an inverted microscope and analysed by Fiji/ImageJ software.

Experiment [3] concerns HCT-116 cells. As to the kind of experiment: MTT antiproliferative assay, HCT-116. The class given is cell-based. Particulars: Homo sapiens, 72 h drug exposure, read-out: IC50 (μM) ± SD HCT-116. On the procedure: All cell lines tested in this study were purchased from the American Type Culture Collection (ATCC, Manassas, VA). SGC-7901 (human gastric adenocarcinoma), HCT-116 (human colon carcinoma), and A549 (human pulmonary carcinoma) cells were cultured in RPMI-1640 medium containing 10% foetal serum (FBS) and 1% penicillin-streptomycin solution (100×). MCF-7 (human breast carcinoma) cells were cultured in DMEM medium containing 10% foetal serum (FBS) and 1% penicillin-streptomycin solution (100×). PC-3 (human prostate carcinoma) cells were cultured in Ham’s F-12K medium containing 10% foetal serum (FBS) and 1% penicillin-streptomycin solution (100×). All cells were cultured at 37 °C in a humidified atmosphere containing 5% CO2.
Cells grown in logarithmic phase were harvested and seeded onto 96-well cell plates at a density of 4 ∼ 5 × 10^3 cells per well (various from cell type) and were cultured for 24 h. Different concentrations of compounds were added into the wells, and the cells were cultured for another 72 h. The medium was removed, then 20 μL of MTT (5 mg/mL in PBS) was added to each well and the cells were incubated for 4 h. 150 μL of DMSO was added to each well to dissolve the formazan, and the absorbance at 490 nm of each well was measured by a microplate reader. IC50 values were calculated by SPSS software.
Background: Tetrazolium assays rely on reduction of a dye to a coloured formazan, in cell work by metabolically active cells.

Where two headings read alike, the source gives them in different places.

A word on the viability: it is the share of living cells, or the viability signal relative to a control. Broadly, the IC50 is the concentration needed to halve the response being measured. `COc1cc(C(=O)c2nn(-c3ccc(N)cc3)cc2N)cc(OC)c1OC` [4k, (4-amino-1–(4-aminophenyl)-1H-pyrazol-3-yl)(3,4,5-trimethoxyphenyl)methanone]: the viability at 0.00051 µM in experiment [1] (PC-3, MTT, 24 h, 0.51 nM) was determined as 91.6%. Moreover, the viability at 1.111 µM in experiment [1] (PC-3, MTT, 24 h, 1111 nM) stood at 41.6%. Also, the “percentage of migrated cells” value in experiment [2] (PC-3, 5 nM) was 60.4%; in experiment [2] (PC-3, 10 nM), 25.7%; in experiment [2] (PC-3, 20 nM), 18.7%. Besides, in experiment [3], the IC50 was determined as 0.01 ± 0.001 µM.

With `COc1cc(C2=NCC(=O)Nc3cn(-c4ccccc4)nc32)cc(OC)c1OC` [5a, 2-Phenyl-8–(3,4,5-trimethoxyphenyl)-2,6-dihydropyrazolo[4,3-e][1,4]diazepin-5(4H)-one], the viability at 0.00051 µM in experiment [1] (PC-3, 24 h) came to 76.6%. Further, the viability at 1.111 µM in experiment [1] (PC-3, 24 h) is 39.6%. Further, the “percentage of migrated cells” value in experiment [2] (PC-3, 5 nM) is 53.6%; in experiment [2] (PC-3, 10 nM), 49.1%; in experiment [2] (PC-3, 20 nM) it was 27.8%. For the same compound, in experiment [3], the half-inhibitory concentration (IC50) stood at 0.163 ± 0.038 µM.
